Data published in PMC11483813, “Bombesin-Targeted Delivery of β-Carboline-Based Ir(III) and Ru(II) Photosensitizers for a Selective Photodynamic Therapy of Prostate Cancer” (Inorganic Chemistry, 2024).
Values joined by “and” are separate entries in the source; they are usually repeats but may differ in a detail not shown here. Equal values may be shown once. Read-outs that look alike come from different tables or passages of the source. Residues, ends and D or L forms follow the SMILES beside them. *: point of attachment. X1 = Cn1c2ccccc2c2ccnc(-c3ccc(/C=C/C(=O)*)cn3)c21

Columns and labels:
Format in all cases: cell-based, human
[1] = test system: PC-3 prostate cancer cells; conditions: for PI (IC50,dark/IC50,light) PC-3: blue light 460 nm
Description: (§1) The effect of Ir-H, Ir-Me, Ru-H, and Ru-Me on cell viability was evaluated in the A549 lung cancer and PC-3 prostate cancer cell lines by MTT assays. PC-3 cells were specifically chosen due to their high expression levels of GRPR on their surface, allowing for further evaluation of the activity of the BN3-derived metallopeptides Ir-BN and Ru-BN.[38],[51] In contrast, A549 cells express low levels of GRPR.[52] MRC-5 fibroblasts were used as a nonmalignant cell model.[53]Table 3 reports the half maximal inhibitory concentration (IC50) values obtained after treating the cells either under dark conditions or upon exposure to blue light at a dose of 24.1 J cm^–2. The photocytotoxicity index (PI), defined as the IC50,dark/IC50,light, is provided for each compound.
(§2) Stock solutions of the complexes and metallopeptides were initially prepared at a concentration of 5 mM in DMSO and then diluted in sterile distilled water to achieve a final concentration of 1 mM, with a resulting DMSO concentration of 20% v/v. Cells were seeded into 96-well plates at a density of 2500 cells/well for A549, 3500 cells/well for PC-3, and 5500 cells/well for MRC-5. Following 24 h of incubation for attachment, cells were treated in triplicate with freshly prepared working solutions of the compounds in the culture medium at concentrations ranging from 0.001 to 100 μM. The maximum DMSO concentration in the working solutions was 2% (v/v). The working concentrations for each compound were adjusted based on their cytotoxicity. Following a 4 h incubation period to allow internalization of the compounds into the cells, the plates were kept in dark conditions or exposed to blue (460 nm) or red (655 nm) light for 1 h using an LED system (LuxLight), providing a total dose of 24.1 J cm^–2. All plates were incubated in the dark for an additional 43 h. Cells were then washed with phosphate-buffered saline (PBS), and 100 μL of fresh culture medium containing 10% of 3-[4,5-dimethylthiazol-2-yl]-2,5 diphenyl tetrazolium bromide (MTT) solution (0.5 mg/mL) (Sigma- Aldrich) was added to each well. After a 2 h incubation period, the formazan crystals were dissolved in DMSO, and the absorbance was measured at 570 nm using a Multiscan Plate Reader (Synergy 4, Biotek, Winooski, USA). The concentration causing a 50% reduction in cell viability (IC50) was determined for each compound with the Gen5 software (BioTek). At least three independent experiments were conducted for each compound.

A549 lung cancer cells = conditions: for PI (IC50,dark/IC50,light) A549: blue light 460 nm
Description: as §1, §2

PC-3 cells [2] = test: Mitochondrial membrane potential, JC-10 flow cytometry; conditions: IC50,light 4 h, blue light 1 h, control 63.0 ± 10.6%
Description: Figure 12 Effect on mitochondria function. PC-3 cells were incubated with the indicated compounds at the corresponding IC50,light for 4 h at 37 °C and then exposed to blue light for 1 h. Cells incubated with the medium alone served as the negative control. (A) Confocal microscopy images of the cells. Nuclei were stained blue with Hoechst (λex: 350 nm; λem: 461 nm), and mitochondria were labeled with MitoTracker Red CMXRos (λex: 579 nm; λem: 599 nm). Insets show a 3× magnification of the cells. Scale bars represent 50 μm in 1× images and 20 μm in 3× images. (B) Flow cytometry analysis of the effect of the complexes on mitochondrial membrane potential. […] A decrease in the percentage of cells emitting orange fluorescence indicates a loss of MMP. p < 0.05 and ** p < 0.01 compared to control cells.
Flow cytometry analysis using the mitochondrial specific dye JC-10 confirmed this effect. The fluorescence of JC-10 undergoes a reversible change from green to orange as MMP increases, due to the formation of JC-10 aggregates within polarized mitochondria. This property allows for the simultaneous detection of healthy and depolarized mitochondria. In control cells, orange fluorescence emission corresponding to healthy mitochondria was detected in 63.0 ± 10.6% of cells (Figure 12B). […] Furthermore, the complexes’ ability to photocatalytically oxidize NADH, a primary electron donor for the mitochondrial electron transport chain, may contribute to the mitochondrial damage.
Flow cytometry assessment of the mitochondrial membrane depolarization: PC-3 cells were seeded on 12-well plates at a density of 100000 cells per well. 24 h later, cells were treated with the compounds as described above. Cells were subsequently harvested using trypsinization and incubated with JC-10 dye (Deltaclon) according to the manufacturer’s protocol. A Novocyte flow cytometer was employed to analyze the fluorescence emission of JC-10 in 10000 cells. Fluorescence was detected at 590 nm (FL2) to identify the percentage of cells with healthy mitochondria and at 529 nm (FL1) to determine the percentage of cells with depolarized mitochondria. Each compound was evaluated in three independent experiments, and the mean and standard deviation of the results were represented.

PC-3 cells [3] = test: Clonogenic assay; conditions: 5 μM, blue light irradiation, 10 days, versus control cells
Description: The effect of the metallopeptides Ir-BN and Ru-BN as well as of the complexes Ir-H and Ru-H on the viability of PC-3 cells was next investigated through clonogenic assays, which determine the fraction of cells that survive treatment and retain the ability to generate new colonies.[56] This is a crucial feature of metastatic cancer cells, which need to proliferate in distant tissues to create secondary tumors. For this purpose, PC-3 cells were treated with the compounds at an equimolar concentration of 5 μM with or without photoactivation with blue light. Ten days later, the number of cells that survived and were able to grow and form colonies was assessed in comparison to control cells. Cells treated with cisplatin were used as a positive control.
Figure 8 Clonogenic assay. PC-3 cells were treated with the indicated compounds at 5 μM in the dark and with blue light irradiation. Control cells were treated with the medium alone. Cisplatin was used as a positive control. Cells were incubated for 10 days to allow colony formation. (A) Images of the colonies. (B) Bar charts representing the percentage of colonies versus control cells after each treatment (mean ± SD of 3 experiments). ** p < 0.01; *** p < 0.001 versus control cells.
PC-3 cells were seeded at a density of 100000 cells per well in 12-well plates and allowed to adhere for 24 h. The cells were treated with the compounds […] for 4 h and subsequently irradiated with blue light or kept in the dark for one hour. The treatments were then removed, and the cells were washed with PBS, harvested by trypsinization, and counted using a Novocyte flow cytometer (Agilent Technologies). Subsequently, 3000 cells were seeded in 5 cm culture dishes and incubated for 10 days to allow colonies to form. A colony was defined to consist of at least 50 cells. Cells treated with cisplatin (5 μM) were used as a positive control, and cells treated with the culture medium alone were used as a negative control. […] Each compound was evaluated in triplicate.

[4] = PC-3, 4 h incubation, blue light 1 h (460 nm, 24.1 J cm^–2), MTT after 48 h, read-out: IC50 PC-3 Light
[5] = PC-3, 4 h incubation, kept in the dark 1 h, MTT after 48 h, read-out: IC50 PC-3 Dark
[6] = A549, 4 h incubation, blue light 1 h (460 nm, 24.1 J cm^–2), MTT after 48 h, read-out: IC50 A549 Light
[7] = A549, 4 h incubation, kept in the dark 1 h, MTT after 48 h, read-out: IC50 A549 Dark

Structure (SMILES)	IC50 [1, 4] [µM]	IC50 [1, 5] [µM]	PI (IC50,dark/IC50,light) PC-3 ([1]; PC-3)	PI (IC50,dark/IC50,red light) PC-3 ([1]; PC-3, red light 655 nm)	IC50 ([1]; PC-3, red light 1 h (655 nm, 24.1 J cm^–2), MTT after 48 h, read-out: IC50,redlight PC-3) [µM]	IC50 (A549 lung cancer cells; [6]) [µM]	IC50 (A549 lung cancer cells; [7]) [µM]	PI (IC50,dark/IC50,light) A549 (A549 lung cancer cells; A549)	population of cells emitting JC-10 orange fluorescence (PC-3 cells [2]) [%]	decrease in number of colonies (PC-3 cells [3])	IC50 ([1]; 4 h) [µM]	photoselectivity index (IC50,dark in nonmalignant cells/IC50,light in GRPR overexpressing cancer cells) ([1]; 24 h)	selectivity for PC-3 cells with respect to MRC-5 fibroblasts ([1]; after blue light) [fold]	IC50 (A549 lung cancer cells; 4 h) [µM]
Cn1c2ccccc2c2ccnc(-c3ccc(/C=C/C(=O)O)cn3)c21.[Cl-].[Cl-].[Ru+2].c1ccc(-c2ccccn2)nc1.c1ccc(-c2ccccn2)nc1 [Ru-H]	34.8 ± 4.3	70.4 ± 2.7	2.0	1.3	54.3 ± 4.7	56.7 ± 1.6	67.8 ± 6.7	1.2	28.2 ± 7.8	No effect				
CC(C)C[C@H](NC(=O)[C@H](CC(C)C)NC(=O)[C@H](Cc1c[nH]cn1)NC(=O)CNC(=O)[C@@H](NC(=O)[C@H](C)NC(=O)[C@H](Cc1c[nH]c2ccccc12)NC(=O)[C@H](CCC(N)=O)NC(=O)[C@H](CC(N)=O)NC(=O)CNC(=O)[C@H](CC(C)C)NC(=O)[C@H](CCCNC(=N)N)NC(=O)[C@H](CCC(N)=O)NC(=O)/C=C/c1ccc(-c2nccc3c4ccccc4n(C)c23)nc1)C(C)C)C(N)=O [Ir-BN] (X1-QRLGNQWAVGHLL-NH2)			4.1					5.4	16.0 ± 9.5	34.7%	8.51 ± 0.8	9.5	3.4	12.6 ± 1.3
COC(=O)/C=C/c1ccc(-c2nccc3c4ccccc4n(C)c23)nc1.[Cl-].[Ir+3].[c-]1ccccc1-c1ccccn1.[c-]1ccccc1-c1ccccn1 [Ir-Me]	0.0723 ± 0.031	1.17 ± 0.29	16.2			0.0334 ± 0.0068	0.471 ± 0.031	14.2	21.2 ± 4.9					
Cn1c2ccccc2c2ccnc(-c3ccc(/C=C/C(=O)O)cn3)c21.[Cl-].[Ir+3].[c-]1ccccc1-c1ccccn1.[c-]1ccccc1-c1ccccn1 [Ir-H]	9.23 ± 0.63	32.2 ± 1.9	3.49 and 3.5			3.32 ± 1.1	35 ± 5.4	10.5	16.6 ± 9.2	27.3%				
